Results reported in PubChem BioAssay (NCI).
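96-well plates; 48 h exposure; 5 concentrations. Endpoints by linear interpolation between flanking doses. Not reached: highest tested concentration assigned. GI50: concentration for 50% inhibition of growth. Definition used: TGI = concentration required for complete inhibition of growth.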

Experiments:
Experiment in all cases: growth of human tumour cells (NCI), 48 h
786-0 renal = system: 786-0 renal
A498 renal = system: A498 renal
A549 NSCLC = system: A549 NSCLC
ACHN renal = system: ACHN renal
BT-549 breast = system: BT-549 breast
CAKI-1 renal = system: CAKI-1 renal
CCRF-CEM leukemia = system: CCRF-CEM leukemia
COLO 205 colon = system: COLO 205 colon
DU-145 prostate = system: DU-145 prostate
EKVX NSCLC = system: EKVX NSCLC
HCC-2998 colon = system: HCC-2998 colon
HCT-116 colon = system: HCT-116 colon
HCT-15 colon = system: HCT-15 colon
HL-60(TB) leukemia = system: HL-60(TB) leukemia
HOP-62 NSCLC = system: HOP-62 NSCLC
HS 578T breast = system: HS 578T breast
HT29 colon = system: HT29 colon
IGROV1 ovarian = system: IGROV1 ovarian
K-562 leukemia = system: K-562 leukemia
KM12 colon = system: KM12 colon
LOX IMVI melanoma = system: LOX IMVI melanoma
M14 melanoma = system: M14 melanoma
MALME-3M melanoma = system: MALME-3M melanoma
MDA-MB-231 breast = system: MDA-MB-231 breast
MDA-MB-435 = system: MDA-MB-435
NCI-H226 lung = system: NCI-H226 lung
NCI-H23 lung = system: NCI-H23 lung
NCI-H522 lung = system: NCI-H522 lung
NCI/ADR-RES ovarian = system: NCI/ADR-RES ovarian
OVCAR-3 ovarian = system: OVCAR-3 ovarian
OVCAR-4 ovarian = system: OVCAR-4 ovarian
OVCAR-5 ovarian = system: OVCAR-5 ovarian
OVCAR-8 ovarian = system: OVCAR-8 ovarian
PC-3 prostate = system: PC-3 prostate
RPMI-8226 leukemia = system: RPMI-8226 leukemia
RXF 393 renal = system: RXF 393 renal
SF-295 CNS = system: SF-295 CNS
SF-539 CNS = system: SF-539 CNS
SK-MEL-2 melanoma = system: SK-MEL-2 melanoma
SK-MEL-28 melanoma = system: SK-MEL-28 melanoma
SK-MEL-5 melanoma = system: SK-MEL-5 melanoma
SK-OV-3 ovarian = system: SK-OV-3 ovarian
SN12C renal = system: SN12C renal
SNB-75 CNS = system: SNB-75 CNS
SR leukemia = system: SR leukemia
SW-620 colon = system: SW-620 colon
T-47D breast = system: T-47D breast
TK-10 renal = system: TK-10 renal
U251 CNS = system: U251 CNS
UACC-257 melanoma = system: UACC-257 melanoma
UACC-62 melanoma = system: UACC-62 melanoma
UO-31 renal = system: UO-31 renal
MCF7 breast = system: MCF7 breast
MOLT-4 leukemia = system: MOLT-4 leukemia
NCI-H460 lung = system: NCI-H460 lung
SF-268 CNS = system: SF-268 CNS
SNB-19 CNS = system: SNB-19 CNS

Q: What does the source list for `CO/N=C(/COc1c(-c2ccccc2)oc2ccccc2c1=O)c1ccc(F)cc1`?
A: GI50 (786-0 renal): 25.1 µM; TGI (786-0 renal): 64 µM; GI50 (A498 renal): 61.2 µM; TGI (A498 renal): > 100 µM; GI50 (A549 NSCLC): 57.4 µM; TGI (A549 NSCLC): > 100 µM; GI50 (ACHN renal): 31.8 µM; TGI (ACHN renal): > 100 µM; GI50 (BT-549 breast): 82.9 µM; TGI (BT-549 breast): > 100 µM; GI50 (CAKI-1 renal): > 100 µM; TGI (CAKI-1 renal): > 100 µM; GI50 (CCRF-CEM leukemia): 12.6 µM; TGI (CCRF-CEM leukemia): 67.9 µM; GI50 (COLO 205 colon): > 100 µM; TGI (COLO 205 colon): > 100 µM; GI50 (DU-145 prostate): > 100 µM; TGI (DU-145 prostate): > 100 µM; GI50 (EKVX NSCLC): > 100 µM; TGI (EKVX NSCLC): > 100 µM; GI50 (HCC-2998 colon): > 100 µM; TGI (HCC-2998 colon): > 100 µM; GI50 (HCT-116 colon): 39.3 µM; TGI (HCT-116 colon): > 100 µM; GI50 (HCT-15 colon): > 100 µM; TGI (HCT-15 colon): > 100 µM; GI50 (HL-60(TB) leukemia): > 100 µM; TGI (HL-60(TB) leukemia): > 100 µM; GI50 (HOP-62 NSCLC): 27.3 µM; TGI (HOP-62 NSCLC): 67.8 µM; GI50 (HS 578T breast): 30.2 µM; TGI (HS 578T breast): > 100 µM; GI50 (HT29 colon): > 100 µM; TGI (HT29 colon): > 100 µM; GI50 (IGROV1 ovarian): 22.1 µM; TGI (IGROV1 ovarian): 90.7 µM; GI50 (K-562 leukemia): > 100 µM; TGI (K-562 leukemia): > 100 µM; GI50 (KM12 colon): > 100 µM; TGI (KM12 colon): > 100 µM; GI50 (LOX IMVI melanoma): 69.9 µM; TGI (LOX IMVI melanoma): > 100 µM; GI50 (M14 melanoma): 30.6 µM; TGI (M14 melanoma): > 100 µM; GI50 (MALME-3M melanoma): 52.9 µM; TGI (MALME-3M melanoma): > 100 µM; GI50 (MDA-MB-231 breast): 20.5 µM; TGI (MDA-MB-231 breast): 53.8 µM; GI50 (MDA-MB-435): > 100 µM; TGI (MDA-MB-435): > 100 µM; GI50 (NCI-H226 lung): > 100 µM; TGI (NCI-H226 lung): > 100 µM; GI50 (NCI-H23 lung): > 100 µM; TGI (NCI-H23 lung): > 100 µM; GI50 (NCI-H522 lung): 36.4 µM; TGI (NCI-H522 lung): > 100 µM; GI50 (NCI/ADR-RES ovarian): 86.4 µM; TGI (NCI/ADR-RES ovarian): > 100 µM; GI50 (OVCAR-3 ovarian): 56.7 µM; TGI (OVCAR-3 ovarian): > 100 µM; GI50 (OVCAR-4 ovarian): 25.9 µM; TGI (OVCAR-4 ovarian): 71.4 µM; GI50 (OVCAR-5 ovarian): > 100 µM; TGI (OVCAR-5 ovarian): > 100 µM; GI50 (OVCAR-8 ovarian): 53 µM; TGI (OVCAR-8 ovarian): > 100 µM; GI50 (PC-3 prostate): 31.5 µM; TGI (PC-3 prostate): > 100 µM; GI50 (RPMI-8226 leukemia): 72.1 µM; TGI (RPMI-8226 leukemia): > 100 µM; GI50 (RXF 393 renal): 76.6 µM; TGI (RXF 393 renal): > 100 µM; GI50 (SF-295 CNS): 41.1 µM; TGI (SF-295 CNS): > 100 µM; GI50 (SF-539 CNS): 85.6 µM; TGI (SF-539 CNS): > 100 µM; GI50 (SK-MEL-2 melanoma): 58.4 µM; TGI (SK-MEL-2 melanoma): > 100 µM; GI50 (SK-MEL-28 melanoma): > 100 µM; TGI (SK-MEL-28 melanoma): > 100 µM; GI50 (SK-MEL-5 melanoma): > 100 µM; TGI (SK-MEL-5 melanoma): > 100 µM; GI50 (SK-OV-3 ovarian): 62.4 µM; TGI (SK-OV-3 ovarian): > 100 µM; GI50 (SN12C renal): 35.1 µM; TGI (SN12C renal): > 100 µM; GI50 (SNB-75 CNS): 28 µM; TGI (SNB-75 CNS): 81.1 µM; GI50 (SR leukemia): 22 µM; TGI (SR leukemia): > 100 µM; GI50 (SW-620 colon): > 100 µM; TGI (SW-620 colon): > 100 µM; GI50 (T-47D breast): > 100 µM; TGI (T-47D breast): > 100 µM; GI50 (TK-10 renal): 27.2 µM; TGI (TK-10 renal): 95.7 µM; GI50 (U251 CNS): 33.9 µM; TGI (U251 CNS): > 100 µM; GI50 (UACC-257 melanoma): > 100 µM; TGI (UACC-257 melanoma): > 100 µM; GI50 (UACC-62 melanoma): 96.1 µM; TGI (UACC-62 melanoma): > 100 µM; GI50 (UO-31 renal): > 100 µM; TGI (UO-31 renal): > 100 µM

Q: `CS(=O)(=O)CC(Cc1ccccc1)C(=O)O` (stereo unspecified) was tested. Which GI50 (SR leukemia) did it give?
A: 10.6 µg/mL

Q: And the GI50 (TK-10 renal)?
A: 92.1 µg/mL

Q: With `COC(=O)c1ccccc1CC(Cc1ccccc1)C(=O)OC` (stereo unspecified) as the compound, how does the TGI (786-0 renal) read?
A: > 100 µM

Q: What about the TGI (A498 renal) of the same compound?
A: > 100 µM

Q: What about the TGI (A549 NSCLC) of the same compound?
A: > 100 µM

Q: What about the TGI (ACHN renal) of the same compound?
A: > 100 µM

Q: And the TGI (BT-549 breast)?
A: > 100 µM

Q: And the TGI (CAKI-1 renal)?
A: > 100 µM

Q: And the TGI (CCRF-CEM leukemia)?
A: > 100 µM

Q: What about the TGI (COLO 205 colon) of the same compound?
A: > 100 µM

Q: And the TGI (DU-145 prostate)?
A: > 100 µM

Q: And the TGI (EKVX NSCLC)?
A: > 100 µM

Q: What about the TGI (HCC-2998 colon) of the same compound?
A: > 100 µM

Q: What about the TGI (HCT-116 colon) of the same compound?
A: > 100 µM

Q: And the TGI (HCT-15 colon)?
A: > 100 µM

Q: What about the TGI (HL-60(TB) leukemia) of the same compound?
A: 55.9 µM

Q: And the TGI (HOP-62 NSCLC)?
A: > 100 µM

Q: What about the TGI (HS 578T breast) of the same compound?
A: > 100 µM

Q: What about the TGI (HT29 colon) of the same compound?
A: > 100 µM

Q: What about the TGI (IGROV1 ovarian) of the same compound?
A: > 100 µM

Q: What about the TGI (K-562 leukemia) of the same compound?
A: > 100 µM

Q: And the TGI (KM12 colon)?
A: > 100 µM

Q: What about the TGI (LOX IMVI melanoma) of the same compound?
A: > 100 µM

Q: What about the TGI (M14 melanoma) of the same compound?
A: > 100 µM

Q: What about the TGI (MALME-3M melanoma) of the same compound?
A: > 100 µM

Q: What about the TGI (MCF7 breast) of the same compound?
A: > 100 µM

Q: And the TGI (MDA-MB-231 breast)?
A: > 100 µM

Q: And the TGI (MDA-MB-435)?
A: > 100 µM

Q: And the TGI (MOLT-4 leukemia)?
A: 90.7 µM

Q: What about the TGI (NCI-H226 lung) of the same compound?
A: > 100 µM

Q: And the TGI (NCI-H23 lung)?
A: > 100 µM

Q: What about the TGI (NCI-H460 lung) of the same compound?
A: > 100 µM

Q: What about the TGI (NCI-H522 lung) of the same compound?
A: > 100 µM

Q: And the TGI (NCI/ADR-RES ovarian)?
A: > 100 µM

Q: And the TGI (OVCAR-3 ovarian)?
A: > 100 µM

Q: And the TGI (OVCAR-4 ovarian)?
A: > 100 µM

Q: And the TGI (OVCAR-5 ovarian)?
A: > 100 µM

Q: And the TGI (OVCAR-8 ovarian)?
A: > 100 µM

Q: And the TGI (PC-3 prostate)?
A: > 100 µM

Q: What about the TGI (RPMI-8226 leukemia) of the same compound?
A: > 100 µM

Q: What about the TGI (RXF 393 renal) of the same compound?
A: 70.9 µM

Q: And the TGI (SF-268 CNS)?
A: 61.3 µM

Q: And the TGI (SF-295 CNS)?
A: > 100 µM

Q: And the TGI (SF-539 CNS)?
A: > 100 µM

Q: And the TGI (SK-MEL-2 melanoma)?
A: > 100 µM

Q: And the TGI (SK-MEL-28 melanoma)?
A: > 100 µM

Q: And the TGI (SK-MEL-5 melanoma)?
A: 54.8 µM

Q: And the TGI (SK-OV-3 ovarian)?
A: > 100 µM

Q: What about the TGI (SN12C renal) of the same compound?
A: > 100 µM

Q: What about the TGI (SNB-19 CNS) of the same compound?
A: > 100 µM

Q: And the TGI (SNB-75 CNS)?
A: 73.7 µM

Q: What about the TGI (SR leukemia) of the same compound?
A: > 100 µM

Q: And the TGI (SW-620 colon)?
A: > 100 µM

Q: What about the TGI (TK-10 renal) of the same compound?
A: > 100 µM

Q: And the TGI (U251 CNS)?
A: > 100 µM

Q: And the TGI (UACC-257 melanoma)?
A: > 100 µM

Q: And the TGI (UO-31 renal)?
A: > 100 µM
